Data on 14 molecules can be found in patent publication US7511047B2, “Kinase inhibitors” (Cytopia Research Pty Ltd, priority 2002, dated 2009).

Common to all, as to type: biochemical
The target of one assay is hck (Homo sapiens, UniProt P08631). As to the kind of experiment: hck kinase assay (ELISA or Alphascreen). The following applies: capacity to inhibit 50% of activity at 50 μM; read-out: hck inhibitory activity. Here is the method:
(§1) For screening purposes, compounds were diluted in 96 well plates at a concentration of 20 μM. Plates were warmed at 37° C. for 30 minutes before assay.
(§2) Kinase assays were performed either in a 96 well capture-based ELISA assay or in 384 well Optiplates (Packard) using an Alphascreen Protein Tyrosine Kinase kit. In either casse using approximately 1.5 μg of affinity purified PTK domain in the presence of 50 mM HEPES, pH 7.5, 10 mM MgCl2, 150 mM NaCl and 10 μM-1 mM ATP. The biotinylated substrate biotin-EGPWLEEEEEAYGWMDF-NH2 (SEQ ID NO:9) (final concentration 5 μM) was used as substrate. In the ELISA assay tyrosine phosphorylation was quantitated following transfer to an avidin coated ELISA plate using peroxidase-linked anti-phospho-tyrosine antibody PY20. In the Alphascreen assay, Alphascreen phosphotyrosine acceptor beads followed by streptavidin donor beads were added under subdued light. The ELISA plates were read on a BMG Fluorostar, the Alphascreen plates were read on a Packard Fusion Alpha. Inhibitors were added to the assays fifteen minutes prior to the addition of ATP. Inhibitors were added in aqueous DMSO, with DMSO concentrations never exceeding 1%.

In another assay the target is T1, Jak2 (Homo sapiens, UniProt O60674).
T1 construct: The kinase domain of humanJAK2 was amplified from U937mRNA; His tag (from pFastBac HTc vector) (N); made in house; host or cells: baculovirus; Sf9 insect cells for virus, High Five cells for large-scale production
Kind of assay: JAK2 kinase domain assay (ELISA or Alphascreen). The following applies: capacity to inhibit 50% of activity at 50 μM; read-out: Jak2 inhibitory activity. The method, then: as §1
• JAK1 PCR products were cloned into the pFastBac HTb expression vector (Gibco) via the Xho I and Kpn I sites. The JAK1 plasmid was then transformed into competent DH10Bac cells (Gibco), and the recombinant baculovirus produced prepared for transfection into Sf9 insect cells. JAK2 • The kinase domain of humanJAK2 was amplified from U937mRNA using the polymerase chain reaction with the following primers:
• JAK2 PCR products were cloned into the pFastBac HTc expression vector (Gibco) via the Sal I and Not I sites. The JAK2 plasmid was then transformed into competent DH10Bac cells (Gibco), and the recombinant baculovirus produced prepared for transfection into Sf9 insect cells. JAK3 • The kinase domain of humanJAK3 was amplified from U937mRNA using the polymerase chain reaction with the following primers: […]
(§3) Baculovirus preparations from each of the JAK family members were infected into five litres of High Five cells (Invitrogen) grown in High Five serum free medium (Invitrogen) to a cell density of approximately 1-2×10^6 cells/ml. Cells are infected with virus at a MOI of 0.8-3.0. Cells were harvested and lysed. JAK kinase domains were purified by affinity chromatography on a Probond (Invitrogen) nickel chelate affinity column.
as §2
In general terms: In an ELISA, binding on a coated surface is turned into a signal by an enzyme label.

The next assay deals with T2, Jak3 (Homo sapiens, UniProt P52333).
T2 construct: The kinase domain of humanJAK3 was amplified from U937mRNA; His tag (from pFastBac HTb vector) (N); made in house; host or cells: baculovirus; Sf9 insect cells for virus, High Five cells for large-scale production
Kind of assay: JAK3 kinase domain assay (ELISA or Alphascreen). As to conditions: capacity to inhibit 50% of activity at 50 μM; read-out: Jak3 inhibitory activity. Here is the method: as §1
• JAK2 PCR products were cloned into the pFastBac HTc expression vector (Gibco) via the Sal I and Not I sites. The JAK2 plasmid was then transformed into competent DH10Bac cells (Gibco), and the recombinant baculovirus produced prepared for transfection into Sf9 insect cells. JAK3 • The kinase domain of humanJAK3 was amplified from U937mRNA using the polymerase chain reaction with the following primers:
• JAK3 PCR products were cloned into the pFastBac HTb expression vector (Gibco) via the Xho I and Kpn I sites. The JAK3 plasmid was then transformed into competent DH10Bac cells (Gibco), and the recombinant baculovirus produced prepared for transfection into Sf9 insect cells. TYK2 • The kinase domain of humanTYK2 was amplified from A549 mRNA using the polymerase chain reaction with the following primers: […]
as §3, §2

The next assay concerns the target kdr (Homo sapiens, UniProt P35968). Kind of assay: kdr kinase assay (ELISA or Alphascreen). The following applies: capacity to inhibit 50% of activity at 50 μM; read-out: kdr inhibitory activity. The method, then:
as §1, §2

For a further assay, the target named is T3, abl (Homo sapiens, UniProt P00519).
T3 sequence (P00519 242-493 limits assumed): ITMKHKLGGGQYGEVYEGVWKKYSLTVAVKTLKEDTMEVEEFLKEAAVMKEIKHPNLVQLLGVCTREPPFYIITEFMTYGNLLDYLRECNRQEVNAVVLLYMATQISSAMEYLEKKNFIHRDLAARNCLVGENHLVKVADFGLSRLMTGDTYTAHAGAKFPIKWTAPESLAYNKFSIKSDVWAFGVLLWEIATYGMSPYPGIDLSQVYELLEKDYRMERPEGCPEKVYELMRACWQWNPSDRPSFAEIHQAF
As to the kind of experiment: abl kinase assay (ELISA or Alphascreen). As to conditions: capacity to inhibit 50% of activity at 50 μM; read-out: abl inhibitory activity. The method, then: as §1, §2

T2 sequence (P52333 822-1111 limits assumed): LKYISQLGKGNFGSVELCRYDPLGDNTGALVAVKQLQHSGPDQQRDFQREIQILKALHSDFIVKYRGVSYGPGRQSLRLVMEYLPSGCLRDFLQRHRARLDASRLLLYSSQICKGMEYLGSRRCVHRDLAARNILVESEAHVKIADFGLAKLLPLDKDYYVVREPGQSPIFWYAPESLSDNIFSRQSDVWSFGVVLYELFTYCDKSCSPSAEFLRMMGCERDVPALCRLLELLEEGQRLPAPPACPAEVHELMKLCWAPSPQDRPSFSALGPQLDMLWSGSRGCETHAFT
Chain of hck (P08631 262-515 limits assumed, species assumed): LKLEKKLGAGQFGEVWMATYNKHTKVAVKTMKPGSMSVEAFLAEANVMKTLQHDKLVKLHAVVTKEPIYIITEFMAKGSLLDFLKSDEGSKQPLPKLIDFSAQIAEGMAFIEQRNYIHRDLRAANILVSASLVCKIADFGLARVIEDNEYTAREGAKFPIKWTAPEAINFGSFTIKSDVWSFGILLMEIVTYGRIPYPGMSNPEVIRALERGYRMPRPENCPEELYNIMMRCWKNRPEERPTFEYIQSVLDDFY
Chain of kdr (P35968 834-1162 limits assumed, species assumed): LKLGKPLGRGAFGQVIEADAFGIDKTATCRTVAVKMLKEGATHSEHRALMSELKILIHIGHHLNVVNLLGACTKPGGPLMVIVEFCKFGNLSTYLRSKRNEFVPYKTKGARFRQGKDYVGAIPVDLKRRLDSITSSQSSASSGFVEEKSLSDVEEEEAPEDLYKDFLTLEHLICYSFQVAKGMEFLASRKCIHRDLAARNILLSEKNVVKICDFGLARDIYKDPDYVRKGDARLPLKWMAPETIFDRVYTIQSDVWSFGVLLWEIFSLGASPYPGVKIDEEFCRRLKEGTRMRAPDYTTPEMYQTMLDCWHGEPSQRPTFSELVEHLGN
T1 sequence (O60674 849-1124 limits assumed): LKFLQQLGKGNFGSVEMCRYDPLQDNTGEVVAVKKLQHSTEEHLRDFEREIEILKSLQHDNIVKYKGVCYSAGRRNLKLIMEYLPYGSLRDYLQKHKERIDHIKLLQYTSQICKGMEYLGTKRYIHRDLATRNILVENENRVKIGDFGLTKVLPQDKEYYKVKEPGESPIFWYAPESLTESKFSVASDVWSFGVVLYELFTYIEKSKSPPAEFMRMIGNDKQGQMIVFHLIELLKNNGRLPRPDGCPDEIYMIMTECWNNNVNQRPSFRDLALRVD

In the case of `Fc1ccc(CNc2cncc(-n3ccnc3)n2)cc1`, the inhibition at 50 µM on hck is over 50%; at Jak2, under 50%; at Jak3 it was over 50%; on kdr, under 50%; at abl, under 50%.
As for `COc1ccc([C@H](C)Nc2cncc(-n3cnc4ccccc43)n2)cc1`, the inhibition at 50 µM at Jak2 was under 50%; on Jak3, under 50%; at kdr, over 50%; at abl, over 50%.
With `C[C@H](Nc1cncc(-n2cnc3ccccc32)n1)c1ccc(Br)cc1`, the inhibition at 50 µM was under 50% on Jak2, under 50% at Jak3, over 50% on kdr and over 50% at abl.
Take `C[C@H](Nc1cncc(-n2cnc3ccc(NS(C)(=O)=O)cc32)n1)c1ccccc1`: the inhibition at 50 µM at hck was over 50%; on Jak2, over 50%; on Jak3, under 50%; on kdr, over 50%; at abl, over 50%.
With `C[C@H](Nc1cncc(-n2cnc3cc(NS(C)(=O)=O)ccc32)n1)c1ccccc1`, the inhibition at 50 µM is over 50% at hck; over 50% on Jak2; under 50% on Jak3; over 50% on kdr; over 50% on abl.
`c1ccc2c(c1)ncn2-c1cncc(Nc2ccc(N3CCOCC3)cc2)n1`: the inhibition at 50 µM at hck was over 50%; at Jak2, under 50%; at Jak3 it was under 50%; at kdr, over 50%; at abl it was under 50%.
Take `Cc1nccn1-c1cncc(NCc2ccc(F)cc2)n1`: the inhibition at 50 µM is over 50% at hck; under 50% at Jak2; over 50% on Jak3; under 50% on kdr; under 50% on abl.
As to `C[C@H](Nc1cncc(-n2ccnc2)n1)c1ccccc1`, the inhibition at 50 µM was over 50% on hck; under 50% on Jak2; under 50% on Jak3; under 50% on kdr; over 50% at abl.
As for `C[C@H](Nc1cncc(-n2cnc3ccccc32)n1)c1ccccc1`, the inhibition at 50 µM on hck was over 50%; at Jak2 it was over 50%; on Jak3, under 50%; on kdr, over 50%; on abl, over 50%.
For the molecule `Cc1nc2ccccc2n1-c1cncc(N[C@@H](C)c2ccccc2)n1`, the inhibition at 50 µM at hck, at Jak2, on Jak3, at kdr and at abl was under 50% in each case.
As to `Cc1ccc2c(c1)ncn2-c1cncc(N[C@@H](C)c2ccccc2)n1`, the inhibition at 50 µM is over 50% at hck; over 50% on Jak2; under 50% on Jak3; over 50% at kdr; over 50% on abl.
Turning to `C[C@H](Nc1cncc(-n2cnc3ccc(C(=O)N4CCN(C)CC4)cc32)n1)c1ccccc1`, the inhibition at 50 µM on hck is over 50%; at Jak2, under 50%; at Jak3, under 50%; on kdr it was under 50%; at abl, under 50%.
On to `C[C@H](Nc1cncc(-n2cnc3cc(C(=O)N4CCN(C)CC4)ccc32)n1)c1ccccc1`, for which the inhibition at 50 µM on hck is over 50%; at Jak2 it was under 50%; at Jak3 it was under 50%; at kdr, over 50%; on abl, over 50%.
For `C[C@H](Nc1cncc(-n2cnc3cc(NC(=O)c4ccncc4)ccc32)n1)c1ccccc1`, the inhibition at 50 µM is over 50% on hck; under 50% at Jak2; under 50% at Jak3; over 50% at kdr; over 50% on abl.
